Data as given in patent publication US20230265116A1, “DEGRADATION OF (EGFR) BY CONJUGATION OF EGFR INHIBITORS WITH E3 LIGASE LIGAND AND METHODS OF USE” (BEIGENE, LTD., priority 2020, published 2023).

Tests used:
Assay type in all cases: cell-based
[1] = biological target: T1, EGFR L858R/T790M/C797S (BaF3-LTC cells) (Homo sapiens, UniProt P00533, C797S/L858R/T790M); experiment: EGFR degradation HTRF assay, BaF3-LTC cells; conditions: BaF3-LTC cells; for DC50: EGFR degradation, IC50 (DC50) from curve fit, read-out: DC50(nM) BaF3-LTC; for Dmax: read-out: Dmax (%) BaF3-LTC
T1 construct: expressed in transfected cells; host or cells: BaF3
T1 sequence (P00533 25-1210 T790M/C797S/L858R): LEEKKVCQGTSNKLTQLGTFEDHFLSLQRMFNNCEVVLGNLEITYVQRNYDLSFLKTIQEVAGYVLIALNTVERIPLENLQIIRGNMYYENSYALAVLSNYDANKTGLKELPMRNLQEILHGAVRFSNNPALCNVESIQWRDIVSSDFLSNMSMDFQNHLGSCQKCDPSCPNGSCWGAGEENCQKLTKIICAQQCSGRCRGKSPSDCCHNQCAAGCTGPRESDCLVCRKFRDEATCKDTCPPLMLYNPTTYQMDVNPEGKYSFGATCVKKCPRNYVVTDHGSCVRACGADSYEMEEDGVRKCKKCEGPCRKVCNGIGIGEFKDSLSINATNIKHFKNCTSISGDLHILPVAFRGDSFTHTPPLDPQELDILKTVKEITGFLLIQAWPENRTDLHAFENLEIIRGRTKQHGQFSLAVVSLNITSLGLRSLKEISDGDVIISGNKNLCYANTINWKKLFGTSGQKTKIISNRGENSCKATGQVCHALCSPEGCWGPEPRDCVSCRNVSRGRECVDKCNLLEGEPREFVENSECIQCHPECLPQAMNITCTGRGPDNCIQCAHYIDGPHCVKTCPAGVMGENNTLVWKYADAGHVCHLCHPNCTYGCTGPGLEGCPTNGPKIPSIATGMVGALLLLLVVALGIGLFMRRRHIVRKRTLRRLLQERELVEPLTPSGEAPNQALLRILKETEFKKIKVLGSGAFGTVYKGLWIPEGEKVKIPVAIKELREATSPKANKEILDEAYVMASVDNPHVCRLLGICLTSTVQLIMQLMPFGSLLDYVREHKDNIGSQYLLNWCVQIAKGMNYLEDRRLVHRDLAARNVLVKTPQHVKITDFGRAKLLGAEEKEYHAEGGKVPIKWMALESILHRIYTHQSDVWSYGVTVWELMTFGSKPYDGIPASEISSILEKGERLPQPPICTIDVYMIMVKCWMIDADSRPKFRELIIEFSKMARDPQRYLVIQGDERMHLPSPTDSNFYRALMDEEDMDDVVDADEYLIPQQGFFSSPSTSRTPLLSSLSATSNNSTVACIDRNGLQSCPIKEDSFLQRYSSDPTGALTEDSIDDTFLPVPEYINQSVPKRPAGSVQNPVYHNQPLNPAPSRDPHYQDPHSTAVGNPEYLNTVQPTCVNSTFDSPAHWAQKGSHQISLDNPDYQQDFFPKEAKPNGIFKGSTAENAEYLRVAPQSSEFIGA
How it was run: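 EGFR remaining after a 16 h, 37 °C exposure (8 doses, 5-fold steps from 10 uM final, 0.2% DMSO) was quantified by HTRF antibodies in cell lysate. Percent inhibition relative to DMSO control was fitted by four-parameter logistic to give DC50; Dmax denotes maximal degradation.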

[2] = test system: EGFR Del19/T790M/C797S (H1975-clone #28); experiment: EGFR degradation HTRF assay, H1975-clone #28 DTC cells; conditions: H1975 # 28 DTC cells; for DC50: EGFR degradation, IC50 (DC50) from curve fit, read-out: DC50(nM) H1975 # 28 DTC; for Dmax (%) H1975 # 28 DTC: maximum percentage of inhibition (degradation)
How it was run: (§1)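 H1975 clones stably overexpressing mutant EGFR, with endogenous EGFR knocked out by sgRNA and homozygosity confirmed by sequencing, were treated 16h at 37° C. with compounds in 0.2% DMSO (top final 10 uM, 5-fold, 8 doses). Lysates were read by HTRF (665/620 nm); DC50 and Dmax came from fitting % degradation versus DMSO control.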

[3] = test system: EGFR Del19/C797S (H1975-clone #23); experiment: EGFR degradation HTRF assay, H1975-clone #23 DC cells; conditions: 16h treatment; for H1975 #23 DC Dmax (%): maximum percentage of degradation; for DC50: H1975 #23 DC, read-out: H1975 #23 DC DC50
How it was run: as §1

[4] = biological target: T2, EGFR L858R/C797S (BaF3 LC cells) (Homo sapiens, UniProt P00533, C797S/L858R); experiment: EGFR degradation HTRF assay, BaF3 LC cells; conditions: BaF3 LC, 16h treatment; for DC50: read-out: BaF3 LC DC50; for Dmax: maximum percentage of degradation, read-out: BaF3 LC Dmax (%)
T2 construct: expressed in transfected cells; host or cells: BaF3
T2 sequence (P00533 25-1210 C797S/L858R): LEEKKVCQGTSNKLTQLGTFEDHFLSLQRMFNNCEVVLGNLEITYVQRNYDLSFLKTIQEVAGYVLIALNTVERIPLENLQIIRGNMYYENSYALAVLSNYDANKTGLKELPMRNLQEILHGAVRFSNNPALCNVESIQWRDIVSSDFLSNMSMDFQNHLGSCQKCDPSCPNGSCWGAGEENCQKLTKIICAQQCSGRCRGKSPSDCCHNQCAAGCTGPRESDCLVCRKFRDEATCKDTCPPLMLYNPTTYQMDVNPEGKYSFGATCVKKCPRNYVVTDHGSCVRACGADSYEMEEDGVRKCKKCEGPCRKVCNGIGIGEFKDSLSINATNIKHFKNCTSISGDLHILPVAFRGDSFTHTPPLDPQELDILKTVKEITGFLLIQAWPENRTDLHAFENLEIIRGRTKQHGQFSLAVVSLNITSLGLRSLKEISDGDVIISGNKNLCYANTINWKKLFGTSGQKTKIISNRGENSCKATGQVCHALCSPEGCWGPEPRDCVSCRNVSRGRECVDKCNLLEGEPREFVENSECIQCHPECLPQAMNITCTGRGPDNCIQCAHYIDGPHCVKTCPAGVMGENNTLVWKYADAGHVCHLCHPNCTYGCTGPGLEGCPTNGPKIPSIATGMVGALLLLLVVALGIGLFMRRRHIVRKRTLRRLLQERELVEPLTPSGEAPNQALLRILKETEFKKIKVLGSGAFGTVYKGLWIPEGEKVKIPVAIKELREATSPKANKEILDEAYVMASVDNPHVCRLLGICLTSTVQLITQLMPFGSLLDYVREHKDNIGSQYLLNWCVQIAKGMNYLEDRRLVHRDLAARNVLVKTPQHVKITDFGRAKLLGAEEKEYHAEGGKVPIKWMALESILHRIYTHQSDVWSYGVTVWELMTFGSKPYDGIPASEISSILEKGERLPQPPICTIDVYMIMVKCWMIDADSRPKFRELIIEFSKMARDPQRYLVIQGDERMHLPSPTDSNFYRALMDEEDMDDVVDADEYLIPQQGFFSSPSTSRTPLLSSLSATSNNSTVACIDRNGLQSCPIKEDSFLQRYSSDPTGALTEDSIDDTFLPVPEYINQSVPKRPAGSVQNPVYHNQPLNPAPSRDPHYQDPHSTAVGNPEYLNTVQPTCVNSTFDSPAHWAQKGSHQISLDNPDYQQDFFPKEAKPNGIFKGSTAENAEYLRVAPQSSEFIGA

[5] = maximum percentage of inhibition (degradation)

SMILES | DC50 [1] | DC50 [2] | Dmax (%) H1975 # 28 DTC [2] | H1975 #23 DC Dmax (%) [3] | DC50 [3] | DC50 [4] | Dmax [1, 5] | Dmax [4] | Dmax (%) BaF3-LTC [1, 5]
CCOc1cc(N2CCC(N3CCN(CCc4cccc5c4n(CC)c(=O)n5C4CCC(=O)NC4=O)CC3)CC2)c(CC)cc1Nc1ncc(Br)c(Nc2ccc3nc(CC)ccc3c2P(C)(C)=O)n1 (stereo not shown) [Example 504, 3-(4-(2-(4-(1-(4-((5-bromo-4-((5-(dimethylphosphoryl)-2-ethylquinolin-6-yl)amino)pyrimidin-2-yl)amino)-5-ethoxy-2-ethylphenyl)piperidin-4-yl)piperazin-1-yl)ethyl)-3-ethyl-2-oxo-2,3-dihydro-1H-benzo[d]imidazol-1-yl)piperidine-2,6-dione] | 6.56 nM | 0.962 nM | 75.99% | 78.25% | 2.95 nM | 12.4 nM | – | – | –
CCOc1cc(N2CCC(N3CCN(CC4CN(c5cc(F)c([C@H]6CCC(=O)NC6=O)c(F)c5)C4)CC3)CC2)c(CC)cc1Nc1ncc(Br)c(Nc2ccc3c(=O)n(CC)ncc3c2P(C)(C)=O)n1 [Example 551, (R)-3-(4-(3-((4-(1-(4-((5-bromo-4-((5-(dimethylphosphoryl)-2-ethyl-1-oxo-1,2-dihydrophthalazin-6-yl)amino)pyrimidin-2-yl)amino)-5-ethoxy-2-ethylphenyl)piperidin-4-yl)piperazin-1-yl)methyl)azetidin-1-yl)-2,6-difluorophenyl)piperidine-2,6-dione] | 6.19 nM | 1.62 nM | 90.57% | 84.14% | 5.64 nM | 46.5 nM | – | – | –
CCc1cc(Nc2ncc(Br)c(Nc3ccc4nc(C)ccc4c3P(C)(C)=O)n2)c(OC)cc1N1CCC(N2CCN(CCc3cccc4c3oc(=O)n4C3CCC(=O)NC3=O)CC2)CC1 (stereo not shown) [Example 506, 3-(7-(2-(4-(1-(4-((5-bromo-4-((5-(dimethylphosphoryl)-2-methylquinolin-6-yl)amino)pyrimidin-2-yl)amino)-2-ethyl-5-methoxyphenyl)piperidin-4-yl)piperazin-1-yl)ethyl)-2-oxobenzo[d]oxazol-3(2H)-yl)piperidine-2,6-dione] | 6.1 nM | 0.96 nM | 84.41% | 80.87% | 2.04 nM | 22.5 nM | 93% | 91.7% | –
CCc1cc(Nc2ncc(Br)c(Nc3ccc4nc(NC(=O)C5CC5)ccc4c3P(C)(C)=O)n2)c(OC)cc1N1CCC(N2CCN(C(=O)[C@@H]3CCN(c4cc(F)c([C@H]5CCC(=O)NC5=O)c(F)c4)C3)CC2)CC1 [Example 587, N-(6-((5-bromo-2-((4-(4-(4-((R)-1-(4-((R)-2,6-dioxopiperidin-3-yl)-3,5-difluorophenyl)pyrrolidine-3-carbonyl)piperazin-1-yl)piperidin-1-yl)-5-ethyl-2-methoxyphenyl)amino)pyrimidin-4-yl)amino)-5-(dimethylphosphoryl)quinolin-2-yl)cyclopropanecarboxamide] | 2.19 nM | 0.765 nM | 87.02% | 87.43% | 6.14 nM | 14.6 nM | 89.2% | 87.8% | –
CCOc1cc(N2CCC(N3CCN(CCc4cccc5c4n(CC)c(=O)n5C4CCC(=O)NC4=O)CC3)CC2)c(CC)cc1Nc1ncc(Br)c(Nc2cc(F)c3nc(CC)ccc3c2P(C)(C)=O)n1 (stereo not shown) [Example 643, 3-(4-(2-(4-(1-(4-((5-bromo-4-((5-(dimethylphosphoryl)-2-ethyl-8-fluoroquinolin-6-yl)amino)pyrimidin-2-yl)amino)-5-ethoxy-2-ethylphenyl)piperidin-4-yl)piperazin-1-yl)ethyl)-3-ethyl-2-oxo-2,3-dihydro-1H-benzo[d]imidazol-1-yl)piperidine-2,6-dione] | 3.86 nM | 2.48 nM | 65.15% | 73.67% | 1.45 nM | 3.97 nM | – | – | –
CCc1cc(Nc2ncc(Br)c(Nc3ccc4nc(C)ccc4c3P(C)(C)=O)n2)c(OC)cc1N1CCC(N2CCN(C(=O)C3CN(c4cccc5c4C(C)(C)C(=O)N5C4CCC(=O)NC4=O)C3)CC2)CC1 (stereo not shown) [Example 507] | 4.3 nM | 0.5 nM | 68.8% | 52.12% | 2.41 nM | 8.97 nM | 89.8% | 94% | –
CCOc1cc(N2CCC(N3CCN(CCc4cc(F)c([C@H]5CCC(=O)NC5=O)c(F)c4)CC3)CC2)c(CC)cc1Nc1ncc(Br)c(Nc2ccc3nc(CC)ccc3c2P(C)(C)=O)n1 [Example 483, (R)-3-(4-(2-(4-(1-(4-((5-bromo-4-((5-(dimethylphosphoryl)-2-ethylquinolin-6-yl)amino)pyrimidin-2-yl)amino)-5-ethoxy-2-ethylphenyl)piperidin-4-yl)piperazin-1-yl)ethyl)-2,6-difluorophenyl)piperidine-2,6-dione] | 26.6 nM | 2.02 nM | 81.31% | 70.71% | 7.19 nM | 69 nM | – | – | –
CCc1ccc2c(P(C)(C)=O)c(Nc3nc(Nc4cc(CC)c(N5CCC(N6CCN(CCc7ccc8c(oc(=O)n8C8CCC(=O)NC8=O)c7F)CC6)CC5)cc4OC)ncc3Br)ccc2n1 (stereo not shown) [Example 458, 3-(6-(2-(4-(1-(4-((5-bromo-4-((5-(dimethylphosphoryl)-2-ethylquinolin-6-yl)amino)pyrimidin-2-yl)amino)-2-ethyl-5-methoxyphenyl)piperidin-4-yl)piperazin-1-yl)ethyl)-7-fluoro-2-oxobenzo[d]oxazol-3(2H)-yl)piperidine-2,6-dione] | 2.09 nM | 0.505 nM | 83.62% | 59.65% | 3.26 nM | 3.29 nM | 88.3% | 91.5% | –
CCc1cc(Nc2ncc(Br)c(Nc3ccc4c(=O)n(C)ncc4c3P(C)(C)=O)n2)c(OC)cc1N1CCC(N2CCN(CCc3cccc4c3C3(CC3)C(=O)N4C3CCC(=O)NC3=O)CC2)CC1 (stereo not shown) [Example 756, 3-(4′-(2-(4-(1-(4-((5-bromo-4-((5-(dimethylphosphoryl)-2-methyl-1-oxo-1,2-dihydrophthalazin-6-yl)amino)pyrimidin-2-yl)amino)-2-ethyl-5-methoxyphenyl)piperidin-4-yl)piperazin-1-yl)ethyl)-2′-oxospiro[cyclopropane-1,3′-indolin]-1′-yl)piperidine-2,6-dione] | 2.31 nM | 0.608 nM | 80.03% | 73.8% | 1.69 nM | 10.1 nM | – | – | –
CCOc1cc(N2CCC(N3CCN(CCc4ccc5c(c4)oc(=O)n5C4CCC(=O)NC4=O)CC3)CC2)c(CC)cc1Nc1ncc(Br)c(Nc2ccc3nc(C)ccc3c2P(C)(C)=O)n1 (stereo not shown) [Example 532] | 2.96 nM | 0.642 nM | 70.91% | 52.49% | 0.591 nM | 3.84 nM | – | 88.1% | 95.58%
CCc1ncc2c(P(C)(C)=O)c(Nc3nc(Nc4cc(CC)c(N5CCC(N6CCN(CCc7cc(F)c([C@H]8CCC(=O)NC8=O)c(F)c7)CC6)CC5)cc4OC)ncc3Br)ccc2n1 [Example 589, (R)-3-(4-(2-(4-(1-(4-((5-bromo-4-((5-(dimethylphosphoryl)-2-ethylquinazolin-6-yl)amino)pyrimidin-2-yl)amino)-2-ethyl-5-methoxyphenyl)piperidin-4-yl)piperazin-1-yl)ethyl)-2,6-difluorophenyl)piperidine-2,6-dione] | 4.34 nM | 0.844 nM | 86.23% | 84.51% | 2.2 nM | 20.3 nM | – | – | –
CCc1ccc2c(P(C)(C)=O)c(Nc3nc(Nc4cc(CC)c(N5CCC(N6CCN(C(=O)C7CN(c8cc(F)c([C@H]9CCC(=O)NC9=O)c(F)c8)C7)CC6)CC5)cc4OC)ncc3Br)ccc2n1 [Example 755, (R)-3-(4-(3-(4-(1-(4-((5-bromo-4-((5-(dimethylphosphoryl)-2-ethylquinolin-6-yl)amino)pyrimidin-2-yl)amino)-2-ethyl-5-methoxyphenyl)piperidin-4-yl)piperazine-1-carbonyl)azetidin-1-yl)-2,6-difluorophenyl)piperidine-2,6-dione] | 4.13 nM | 0.57 nM | 84.62% | 69.09% | 7.68 nM | 16.4 nM | – | – | –
